Measured values published in patent publication US8329717B2, “Pyrimidine derivatives and their use for controlling undesired plant growth” (Bayer Cropscience AG, priority 2008, dated 2012).

Assays:
Alopecurus myosuroides [1] = assay: Pre-emergence herbicidal effect; format: in vivo; details: Dosage 320 g/ha, visual scoring after 3 weeks vs untreated controls, 100% = plants have died
Summary of the method: (§1)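 Visual percent damage was rated 3 weeks after treatment against untreated plants, where 100% meant dead and 0% meant like controls. Compounds, formulated as WP or EC, were applied pre-emergence to the covering soil at 600 to 800 l/ha with 0.2% wetting agent; rates in g/ha.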

Amaranthus retroflexus [2] = assay: Pre-emergence herbicidal effect; format: in vivo; details: Dosage 320 g/ha, visual scoring after 3 weeks vs untreated controls, 100% = plants have died
Summary of the method: as §1

Avena fatua [3] = assay: Pre-emergence herbicidal effect; format: in vivo; details: Dosage 320 g/ha, visual scoring after 3 weeks vs untreated controls, 100% = plants have died
Summary of the method: as §1

Cyperus esculentus = assay: Pre-emergence herbicidal effect; format: in vivo; details: Dosage 320 g/ha, visual scoring after 3 weeks vs untreated controls, 100% = plants have died
Summary of the method: as §1

Echinochloa crus-galli [4] = assay: Pre-emergence herbicidal effect; format: in vivo; details: Dosage 320 g/ha, visual scoring after 3 weeks vs untreated controls, 100% = plants have died
Summary of the method: as §1

Lolium multiflorum [5] = assay: Pre-emergence herbicidal effect; format: in vivo; details: Dosage 320 g/ha, visual scoring after 3 weeks vs untreated controls, 100% = plants have died
Summary of the method: as §1

Matricaria inodora [6] = assay: Pre-emergence herbicidal effect; format: in vivo; details: Dosage 320 g/ha, visual scoring after 3 weeks vs untreated controls, 100% = plants have died
Summary of the method: as §1

Polygonum convolvulus [7] = assay: Pre-emergence herbicidal effect; format: in vivo; details: Dosage 320 g/ha, visual scoring after 3 weeks vs untreated controls, 100% = plants have died
Summary of the method: as §1

Setaria viridis [8] = assay: Pre-emergence herbicidal effect; format: in vivo; details: Dosage 320 g/ha, visual scoring after 3 weeks vs untreated controls, 100% = plants have died
Summary of the method: as §1

Stellaria media [9] = assay: Pre-emergence herbicidal effect; format: in vivo; details: Dosage 320 g/ha, visual scoring after 3 weeks vs untreated controls, 100% = plants have died
Summary of the method: as §1

Veronica persica [10] = assay: Pre-emergence herbicidal effect; format: in vivo; details: Dosage 320 g/ha, visual scoring after 3 weeks vs untreated controls, 100% = plants have died
Summary of the method: as §1

Viola tricolor [11] = assay: Pre-emergence herbicidal effect; format: in vivo; details: Dosage 320 g/ha, visual scoring after 3 weeks vs untreated controls, 100% = plants have died
Summary of the method: as §1

PHBPU = assay: Post-emergence herbicidal effect; format: in vivo; details: Dosage 320 g/ha, one-leaf stage, visual scoring after ca. 3 weeks vs untreated controls, 100% = plants have died
Experimental: 2. Post-Emergence Herbicidal Effect and Crop Plant Compatibility Seeds of monocotyledonous or dicotyledonous weed plants or crop plants are planted in wood-fiber pots in sandy loam, covered with earth and grown in a greenhouse under good growth conditions. 2 to 3 weeks after sowing, the test plants are treated in the one-leaf stage. The compounds according to the invention, formulated in the form of wettable powders (WP) or as emulsion concentrates (EC), are then sprayed onto the green plant parts as aqueous suspension or emulsion at a water application rate of 600 to 800 l/ha (converted) with the addition of 0.2% of wetting agent. The dosage of the compounds according to the invention is given in grams per hectare. After ca. 3 weeks' standing time of the test plants in the greenhouse under optimum growth conditions, the effect of the preparations is scored visually in comparison with untreated controls (herbicidal effect in percent (%): 100% effect=plants have died, 0% effect=as control plants).

Alopecurus myosuroides [12] = assay: Post-emergence herbicidal effect; format: in vivo; details: Dosage 320 g/ha, one-leaf stage, visual scoring after ca. 3 weeks vs untreated controls, 100% = plants have died
Summary of the method: (§2)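 Percent effect rated visually about three weeks after spraying, where 0% equals untreated control growth and 100% equals plant death. Spraying was done at the one-leaf stage on greenhouse plants in sandy loam, using WP or EC formulations dosed in g/ha.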

Amaranthus retroflexus [13] = assay: Post-emergence herbicidal effect; format: in vivo; details: Dosage 320 g/ha, one-leaf stage, visual scoring after ca. 3 weeks vs untreated controls, 100% = plants have died
Summary of the method: as §2

Avena fatua [14] = assay: Post-emergence herbicidal effect; format: in vivo; details: Dosage 320 g/ha, one-leaf stage, visual scoring after ca. 3 weeks vs untreated controls, 100% = plants have died
Summary of the method: as §2

Echinochloa crus-galli [15] = assay: Post-emergence herbicidal effect; format: in vivo; details: Dosage 320 g/ha, one-leaf stage, visual scoring after ca. 3 weeks vs untreated controls, 100% = plants have died
Summary of the method: as §2

Lolium multiflorum [16] = assay: Post-emergence herbicidal effect; format: in vivo; details: Dosage 320 g/ha, one-leaf stage, visual scoring after ca. 3 weeks vs untreated controls, 100% = plants have died
Summary of the method: as §2

Setaria viridis [17] = assay: Post-emergence herbicidal effect; format: in vivo; details: Dosage 320 g/ha, one-leaf stage, visual scoring after ca. 3 weeks vs untreated controls, 100% = plants have died
Summary of the method: as §2

Stellaria media [18] = assay: Post-emergence herbicidal effect; format: in vivo; details: Dosage 320 g/ha, one-leaf stage, visual scoring after ca. 3 weeks vs untreated controls, 100% = plants have died
Summary of the method: as §2

Veronica persica [19] = assay: Post-emergence herbicidal effect; format: in vivo; details: Dosage 320 g/ha, one-leaf stage, visual scoring after ca. 3 weeks vs untreated controls, 100% = plants have died
Summary of the method: as §2

[20] = logp (HCOOH), chemicophysical data
Abutilon theophrasti [21] = assay: Pre-emergence herbicidal effect; format: in vivo; details: Dosage 320 g/ha, visual scoring after 3 weeks vs untreated controls, 100% = plants have died
Summary of the method: as §1

Abutilon theophrasti [22] = assay: Post-emergence herbicidal effect; format: in vivo; details: Dosage 320 g/ha, one-leaf stage, visual scoring after ca. 3 weeks vs untreated controls, 100% = plants have died
Summary of the method: as §2

Matricaria inodora [23] = assay: Post-emergence herbicidal effect; format: in vivo; details: Dosage 320 g/ha, one-leaf stage, visual scoring after ca. 3 weeks vs untreated controls, 100% = plants have died
Summary of the method: as §2

Polygonum convolvulus [24] = assay: Post-emergence herbicidal effect; format: in vivo; details: Dosage 320 g/ha, one-leaf stage, visual scoring after ca. 3 weeks vs untreated controls, 100% = plants have died
Summary of the method: as §2

Viola tricolor [25] = assay: Post-emergence herbicidal effect; format: in vivo; details: Dosage 320 g/ha, one-leaf stage, visual scoring after ca. 3 weeks vs untreated controls, 100% = plants have died
Summary of the method: as §2

Row | SMILES | Pre-emergence herbicidal effect ALOMY (Alopecurus myosuroides [1]) [%] | Pre-emergence herbicidal effect AMARE (Amaranthus retroflexus [2]) [%] | Pre-emergence herbicidal effect AVEFA (Avena fatua [3]) [%] | Pre-emergence herbicidal effect CYPES (Cyperus esculentus) [%] | Pre-emergence herbicidal effect ECHCG (Echinochloa crus-galli [4]) [%] | Pre-emergence herbicidal effect LOLMU (Lolium multiflorum [5]) [%] | Pre-emergence herbicidal effect MATIN (Matricaria inodora [6]) [%] | Pre-emergence herbicidal effect POLCO (Polygonum convolvulus [7]) [%] | Pre-emergence herbicidal effect SETVI (Setaria viridis [8]) [%] | Pre-emergence herbicidal effect STEME (Stellaria media [9]) [%] | Pre-emergence herbicidal effect VERPE (Veronica persica [10]) [%] | Pre-emergence herbicidal effect VIOTR (Viola tricolor [11]) [%] | Post-emergence herbicidal effect PHBPU (PHBPU) [%] | Post-emergence herbicidal effect ALOMY (Alopecurus myosuroides [12]) [%] | Post-emergence herbicidal effect AMARE (Amaranthus retroflexus [13]) [%] | Post-emergence herbicidal effect ECHCG (Echinochloa crus-galli [15]) [%] | Post-emergence herbicidal effect LOLMU (Lolium multiflorum [16]) [%] | Post-emergence herbicidal effect SETVI (Setaria viridis [17]) [%] | Post-emergence herbicidal effect STEME (Stellaria media [18]) [%] | Post-emergence herbicidal effect VERPE (Veronica persica [19]) [%] | further results
1 | Cc1ccc2c(c1)[C@H](Nc1ncc(F)c(N)n1)[C@@H](C)C2 [Example 1.56] | 100 | 100 | 100 | 80 | 100 | 100 | 100 | 95 | 100 | 100 | 100 | 100 | 90 | 85 | 80 | 90 | 93 | 80 | 80 | 90 | Post-emergence herbicidal effect AVEFA (Avena fatua [14]): 80%; logp (HCOOH) ([20]; HCOOH): wax-like; logp (HCOOH): 1.20; 1H-NMR (CDCl3, 400 MHZ, δ in ppm): 1.25 (d, 3H, CH3);
2 | Cc1ccc2c(c1)[C@H](Nc1ncc(Br)c(N)n1)[C@@H](C)C2 [Example 1.67, 5-Bromo-N2-[(1R,2S)-2,6-dimethyl-2,3-dihydro-1H-inden-1-yl]pyrimidine-2,4-diamine] | 95 | 100 | 80 |  | 100 | 95 | 100 | 100 | 100 | 100 | 100 | 100 | 93 | 85 | 90 | 95 | 87 | 87 | 90 | 85 | Pre-emergence herbicidal effect ABUTH (Abutilon theophrasti [21]): 90%; Post-emergence herbicidal effect ABUTH (Abutilon theophrasti [22]): 90%; Post-emergence herbicidal effect MATIN (Matricaria inodora [23]): 80%; Post-emergence herbicidal effect POLCO (Polygonum convolvulus [24]): 85%; Post-emergence herbicidal effect VIOTR (Viola tricolor [25]): 80%; chromatographic logP ([20]; HCOOH (formic acid)): 1.3
3 | CC[C@H]1Cc2ccccc2[C@@H]1Nc1ncc(C#N)c(N)n1 [Example 1.129] | 100 | 100 | 90 | 80 | 100 | 100 | 100 | 100 | 100 | 100 | 100 | 100 |  | 90 | 90 | 100 | 90 | 90 | 90 | 90 | Pre-emergence herbicidal effect ABUTH (Abutilon theophrasti [21]): 80%; Post-emergence herbicidal effect ABUTH (Abutilon theophrasti [22]): 90%; Post-emergence herbicidal effect AVEFA (Avena fatua [14]): 80%; Post-emergence herbicidal effect POLCO (Polygonum convolvulus [24]): 90%; Post-emergence herbicidal effect VIOTR (Viola tricolor [25]): 80%
